From patent US20110207751A1, “HETEROCYCLIC COMPOUNDS AND USES AS ANTICANCER AGENTS” (priority 2010, published 2011)
pIC50: −log10 of the molar value. Counter-ions that a name gives are not always drawn. Like-named read-outs stand apart in the source and are kept apart here.

Experiments:
[1] = test system: NIH 3T3 cells (the normal tissue cell line); test: Inhibition of cell proliferation, xCelligence cell index; assay type: cell-based; conditions: Mus musculus, NIH3T3
From the text: (§1) The biological activity of compounds disclosed herein was monitored and profiled using the Real-Time Cell Electronic Sensing (RT-CES®) system from ACEA Biosciences, Inc. The RT-CES system utilizes cell-substrate impedance technology to monitor cellular behavior inside tissue culture wells in a microtiter plate format. The technology features in the integration of molecular and cell biology with microelectronics and is based on the electronic detection of biological assay process. […]
(§2) For measurement of cell-substrate or cell-electrode impedance using RT-CES technology, microelectrodes having appropriate geometries are fabricated onto the bottom surfaces of microtiter plate or similar device, facing into the wells. […] When there are changes to the biological status of the cells analogue electronic readout signals are measured automatically and in real time, and are converted to digital signals for processing and for analysis. In a RT-CES system, a cell index (arbitrary representation of change in impedance) is automatically derived and provided based on measured electrode impedance values. […]
(§3) To quantify cell status based on the measured cell-electrode impedance, a parameter termed Cell Index is derived. Cell Index is a quantitative measure of the status of the cells in an electrode-containing well. […]

human cancer cell lines = test: RT-CES / xCelligence profiling over the panel of cell lines; assay type: cell-based
From the text: as §1, §2, §3

A549 cells = test: Cell-cycle distribution by flow cytometry; assay type: cell-based, human; conditions: 37 nM, 24 hours, vs DMSO only
Procedure: In addition, we have also tested the effect of COMPOUND O on cell-cycle using flow Cytometry. Briefly, A549 cells were seeded at a density of 400,000 cells/well in 6-well tissue culture plates. Approximately 24 hours later the cells were treated with 37 nM COMPOUND O and allowed to further incubate for 24 hours. The cells were washed in PBS, trypsinized, counted and fixed in ice-cold 70% methanol and stored at 4° C. The cells were washed with PBS, stained with propidium iodide and kept on ice until flow Cytometry analysis.

[2] = test system: HepG2 cells (human liver cancer cell line); test: Inhibition of cell proliferation, xCelligence cell index; assay type: cell-based; conditions: 72 hr post compound treatment, read-out: calculated IC50
From the text: as §1, §2, §3

Structure (SMILES): CCc1ccc(Nc2nc(-c3c(C)nc4sccn34)cs2)cc1 [COMPOUND O, 2-(4-ethylphenyl)amino-4-(6-methylimidazo[2,1-b]thiazol-5-yl)-thiazole monohydrobromide]
- pIC50 ([1]; NIH 3T3, 72 hr post compound treatment, read-out: calculated IC50): 5.22
- pIC50 ([1]; NIH-3T3, read-out: IC50): 5.22
- IC50 towards all tested cancer cell lines (human cancer cell lines; all tested cancer cell lines): low nM range
- effect on the proliferation of the cancer cell lines (human cancer cell lines; cell lines listed in b189 (FIGS. 4-24)): exhibited inhibitory effect
- cell population at G2/M phase (A549 cells): increased significantly
- pIC50 [2]: 7.59
